In the assay the target is T1, human adenosine A2b receptor (Homo sapiens, UniProt P29275).
T1 sequence (P29275 1-332): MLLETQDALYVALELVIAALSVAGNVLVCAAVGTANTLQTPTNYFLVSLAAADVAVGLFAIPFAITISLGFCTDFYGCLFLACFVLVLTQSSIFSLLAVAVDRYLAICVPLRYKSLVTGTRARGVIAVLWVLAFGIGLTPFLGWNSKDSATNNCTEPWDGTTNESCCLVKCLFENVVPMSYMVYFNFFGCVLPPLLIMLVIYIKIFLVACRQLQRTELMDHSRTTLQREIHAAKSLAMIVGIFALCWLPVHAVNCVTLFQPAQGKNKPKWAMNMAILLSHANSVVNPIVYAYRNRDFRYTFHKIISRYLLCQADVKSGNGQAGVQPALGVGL
In words: Cellular in vitro reporter gene test for A2b receptor activity (antagonism of NECA). The format is cell-based. Also noted: expressed in transfected cells; host or cells: CHO-K1 (Chinese hamster ovary) with CRE-luciferase reporter. The settings on record: recombinant CHO-K1 cells, CRE-luciferase reporter, co-incubation with EC50 concentration of NECA, 3 hours. In short, it runs like this:
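Antagonism measured as block of NECA-induced, cAMP/CRE-dependent luciferase expression in recombinant A2b CHO-K1 cells. NECA used at the EC50 set in a pre-experiment on each test day; luminescence detected after 3 h. Reported as IC50, partly averaged and rounded to two significant figures.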

As for `Cc1c(CN2CCNC2=O)sc2c1c(=O)n(C1(C)CC1)c(=O)n2CC1CC1(F)F` (single isomer, unassigned) [Example 65, 1-[(2,2-Difluorocyclopropyl)methyl]-5-methyl-3-(1-methylcyclopropyl)-6-[(2-oxoimidazolidin-1-yl)methyl]thieno[2,3-d]pyrimidine-2,4(1H,3H)-dione], the 50% inhibitory concentration (IC50) was found to be 36 nM.

Regarding `Cc1c(CN2CCNC2=O)sc2c1c(=O)n(C1CC1C)c(=O)n2C[C@H]1CCCO1` (stereo partly drawn) [Example 286, 5-Methyl-3-(2-methylcyclopropyl)-6-[(2-oxoimidazolidin-1-yl)methyl]-1-[(2R)-tetrahydrofuran-2-ylmethyl]thieno[2,3-d]pyrimidine-2,4(1H,3H)-dione], the IC50 is 17 nM.

As for `COCCn1c(=O)n(C2CC2(C)C)c(=O)c2c(C)c(CN3CCNC3=O)sc21` (single isomer, unassigned) [Example 104, 3-(2,2-Dimethylcyclopropyl)-1-(2-methoxyethyl)-5-methyl-6-[(2-oxoimidazolidin-1-yl)methyl]thieno[2,3-d]pyrimidine-2,4(1H,3H)-dione], the IC50 was 35 nM.

As for `Cc1c(CN2CCNC2=O)sc2c1c(=O)n(C1(C)CC1)c(=O)n2CC1CCC1` [Example 61, 1-(Cyclobutylmethyl)-5-methyl-3-(1-methylcyclopropyl)-6-[(2-oxoimidazolidin-1-yl)methyl]thieno[2,3-d]pyrimidine-2,4(1H,3H)-dione], the IC50 is 5.4 nM.

As to `Cc1c(Cn2nc[nH]c2=O)sc2c1c(=O)n(C1CC1)c(=O)n2CCCF` [Example 197, 3-Cyclopropyl-1-(3-fluoropropyl)-5-methyl-6-[(5-oxo-4,5-dihydro-1H-1,2,4-triazol-1-yl)methyl]thieno[2,3-d]pyrimidine-2,4(1H,3H)-dione], the IC50 turned out to be 120 nM.

`Cc1c(CN2CCNC2=O)sc2c1c(=O)n(C1CC1C)c(=O)n2CCF` (single isomer, unassigned) [Example 233, 1-(2-Fluoroethyl)-5-methyl-3-(2-methylcyclopropyl)-6-[(2-oxoimidazolidin-1-yl)methyl]thieno[2,3-d]pyrimidine-2,4(1H,3H)-dione]: the IC50 came to 11 nM.

In the case of `Cc1c(Cn2nc[nH]c2=O)sc2c1c(=O)n(C1CC1)c(=O)n2CC1CCCC1(F)F` (single isomer, unassigned) [Example 207, 3-Cyclopropyl-1-[(2,2-difluorocyclopentyl)methyl]-5-methyl-6-[(5-oxo-4,5-dihydro-1H-1,2,4-triazol-1-yl)methyl]thieno[2,3-d]pyrimidine-2,4(1H,3H)-dione], the IC50 was found to be 910 nM.

For `CCCn1c(=O)n(C2CC2C)c(=O)c2c(C)c(CN3CCNC3=O)sc21` (racemic) [Example 227, 5-Methyl-3-(2-methylcyclopropyl)-6-[(2-oxoimidazolidin-1-yl)methyl]-1-propylthieno[2,3-d]pyrimidine-2,4(1H,3H)-dione], the IC50 was determined as 2.9 nM.

As to `Cc1c(Cn2nc[nH]c2=O)sc2c1c(=O)n([C@H]1C[C@@H]1C)c(=O)n2CC1CC(F)(F)C1` [Example 328, 1-[(3,3-Difluorocyclobutyl)methyl]-5-methyl-3-[(1S,2S)-2-methylcyclopropyl]-6-[(5-oxo-4,5-dihydro-1H-1,2,4-triazol-1-yl)methyl]thieno[2,3-d]pyrimidine-2,4(1H,3H)-dione], the IC50 stood at 4.9 nM.

Consider `Cc1c(CN2CCNC2=O)sc2c1c(=O)n(C1CC1C)c(=O)n2CCC(F)(F)C(F)F` (racemic) [Example 245, 5-Methyl-3-(2-methylcyclopropyl)-6-[(2-oxoimidazolidin-1-yl)methyl]-1-(3,3,4,4-tetrafluorobutyl)thieno[2,3-d]pyrimidine-2,4(1H,3H)-dione], for which the IC50 stood at 6.7 nM.

With `Cc1c(CN2CCNC2=O)sc2c1c(=O)n(C1CC1C)c(=O)n2C[C@H]1CCCO1` (single isomer, unassigned) [Example 288], the IC50 is 47 nM.

In the case of `Cc1c(CN2CCNC2=O)sc2c1c(=O)n(C1CC1(C)C)c(=O)n2CCC(F)(F)F` (single isomer, unassigned) [Example 101, 3-(2,2-Dimethylcyclopropyl)-5-methyl-6-[(2-oxoimidazolidin-1-yl)methyl]-1-(3,3,3-trifluoropropyl)thieno[2,3-d]pyrimidine-2,4(1H,3H)-dione], the IC50 was found to be 32 nM.

As for `COC(=O)N=C1NCCN1Cc1sc2c(c1C)c(=O)n(C1CC3(CCC3)C1)c(=O)n2CCC(F)(F)F` [Example 176, Methyl [1-{[5-methyl-2,4-dioxo-3-(spiro[3.3]hept-2-yl)-1-(3,3,3-trifluoropropyl)-1,2,3,4-tetrahydrothieno[2,3-d]pyrimidin-6-yl]methyl}imidazolidin-2-ylidene]carbamate], the IC50 stood at 4 nM.

With `Cc1c(Cn2nc[nH]c2=O)sc2c1c(=O)n(C1CC1)c(=O)n2C[C@@H]1CCCO1` [Example 51, 3-Cyclopropyl-5-methyl-6-[(5-oxo-4,5-dihydro-1H-1,2,4-triazol-1-yl)methyl]-1-[(2S)-tetrahydrofuran-2-ylmethyl]thieno[2,3-d]pyrimidine-2,4(1H, 3H)-dione], the IC50 amounted to 320 nM.

In the case of `CCC1(n2c(=O)c3c(C)c(CN4CCNC4=O)sc3n(CCC(F)(F)F)c2=O)CC1` [Example 106, 3-(1-Ethylcyclopropyl)-5-methyl-6-[(2-oxoimidazolidin-1-yl)methyl]-1-(3,3,3-trifluoropropyl)thieno[2,3-d]pyrimidine-2,4(1H,3H)-dione], the IC50 was 41 nM.

In the case of `CCCCn1c(=O)n(C2(C)CC2)c(=O)c2c(C)c(CN3CCNC3=O)sc21` [Example 54, 1-Butyl-5-methyl-3-(1-methylcyclopropyl)-6-[(2-oxoimidazolidin-1-yl)methyl]thieno[2,3-d]pyrimidine-2,4(1H,3H)-dione], the IC50 was 7.5 nM.

Regarding `Cc1c(CN2CCNC2=O)sc2c1c(=O)n(C1CC1C)c(=O)n2CCCF` (single isomer, unassigned) [Example 91, 1-(3-Fluoropropyl)-5-methyl-3-(2-methylcyclopropyl)-6-[(2-oxoimidazolidin-1-yl)methyl]thieno[2,3-d]pyrimidine-2,4(1H,3H)-dione], the IC50 is 20 nM.

With `COCCn1c(=O)n(C2CC2(C)C)c(=O)c2c(C)c(CN3CCNC3=O)sc21` (single isomer, unassigned) [Example 105, 3-(2,2-Dimethylcyclopropyl)-1-(2-methoxyethyl)-5-methyl-6-[(2-oxoimidazolidin-1-yl)methyl]thieno[2,3-d]pyrimidine-2,4(1H,3H)-dione], the IC50 is 92 nM.

`COC(=O)N=C1NCCN1Cc1sc2c(c1C)c(=O)n(C1CC1C)c(=O)n2CCOC(F)(F)F` (single isomer, unassigned) [Example 268, Methyl [1-({5-methyl-3-(2-methylcyclopropyl)-2,4-dioxo-1-[2-(trifluoromethoxy)ethyl]-1,2,3,4-tetrahydrothieno[2,3-d]pyrimidin-6-yl}methyl)imidazolidin-2-ylidene]carbamate]: the IC50 amounted to 1.5 nM.

As to `Cc1c(CN2CCNC2=O)sc2c1c(=O)n(C1CC1C)c(=O)n2C` (racemic) [Example 221, 1,5-Dimethyl-3-(2-methylcyclopropyl)-6-[(2-oxoimidazolidin-1-yl)methyl]thieno[2,3-d]pyrimidine-2,4(1H,3H)-dione], the IC50 was 3.3 nM.

As to `COCCn1c(=O)n(C2(C)CC2)c(=O)c2c(C)c(Cn3nc[nH]c3=O)sc21` [Example 74, 1-(2-Methoxyethyl)-5-methyl-3-(1-methylcyclopropyl)-6-[(5-oxo-4,5-dihydro-1H-1,2,4-triazol-1-yl)methyl]thieno[2,3-d]pyrimidine-2,4(1H,3H)-dione], the IC50 stood at 86 nM.

Consider `CCn1c(=O)n([C@H]2C[C@@H]2C)c(=O)c2c(C)c(Cn3nc[nH]c3=O)sc21` [Example 316, 1-Ethyl-5-methyl-3-[(1S,2S)-2-methylcyclopropyl]-6-[(5-oxo-4,5-dihydro-1H-1,2,4-triazol-1-yl)methyl]thieno[2,3-d]pyrimidine-2,4(1H,3H)-dione], for which the 50% inhibitory concentration (IC50) is 25 nM.

As to `Cc1c(Cn2cc[nH]c2=O)sc2c1c(=O)n(C1CC1)c(=O)n2CC1CCCO1` (racemic) [Example 46, 3-Cyclopropyl-5-methyl-6-[(2-oxo-2,3-dihydro-H-imidazol-1-yl)methyl]-1-(tetrahydrofuran-2-ylmethyl)thieno[2,3-d]pyrimidine-2,4(1H,3H)-dione], the half-maximal inhibitory concentration (IC50) stood at 39 nM.

As for `COCCn1c(=O)n(C2CCC2)c(=O)c2c(C)c(Cn3nc[nH]c3=O)sc21` [Example 119, 3-Cyclobutyl-1-(2-methoxyethyl)-5-methyl-6-[(5-oxo-4,5-dihydro-H-1,2,4-triazol-1-yl)methyl]thieno[2,3-d]pyrimidine-2,4(1H,3H)-dione], the IC50 is 12 nM.

`COCCn1c(=O)n(C2CC2C(F)(F)F)c(=O)c2c(C)c(Cn3nc[nH]c3=O)sc21` (racemic) [Example 297, 1-(2-Methoxyethyl)-5-methyl-6-[(5-oxo-4,5-dihydro-1H-1,2,4-triazol-1-yl)methyl]-3-[2-(trifluoromethyl)cyclopropyl]thieno[2,3-d]pyrimidine-2,4(1H,3H)-dione]: the IC50 came to 120 nM.

Turning to `Cc1c(CN2CCNC2=NC#N)sc2c1c(=O)n(C1CCC1)c(=O)n2CCC(F)(F)F` [Example 111, [1-{[3-Cyclobutyl-5-methyl-2,4-dioxo-1-(3,3,3-trifluoropropyl)-1,2,3,4-tetrahydrothieno[2,3-d]pyrimidin-6-yl]methyl}imidazolidin-2-ylidene]cyanamide], the concentration for half-maximal inhibition (IC50) was found to be 1.7 nM.

(Values after US20200016159A1, “N3-CYCLICALLY SUBSTITUTED THIENOURACILS AND USE THEREOF” (Bayer Aktiengesellschaft, priority 2016, published 2020).)
